IC50 data for five compounds are collected here from paper PMC8224775, “Five Tetramic Acid Derivatives Isolated from the Iranian Fungus Colpoma quercinum CCTU A372” (Biomolecules, 2021).

Like-named read-outs stand apart in the source and are kept apart here.

In general, IC50 refers to the concentration that inhibits the measured activity by half.

What all share (assay): 5-day MTT cytotoxicity assay
In general terms: Tetrazolium assays rely on reduction of a dye to a coloured formazan, in cell work by metabolically active cells.

The test system of assay [1] is ovarian carcinoma SK-OV-3. The class given is cell-based, human. As to conditions: SK-OV-3, 5-day MTT assay, read-out: IC50. The method, then: (§1) Cytotoxicity of compounds 1‒5 was initially determined against two cancer cell lines (mouse fibroblasts L-929 and human endocervical adenocarcinoma KB-3.1) by using a 5-day MTT assay according to an established procedure.
(§2) In 96-well flat-bottom microtiter plates, cell lines with serial dilution of the test compounds (final range: 37 to 0.6 × 10^−3 µg/mL) were incubated for five days. After five days, the cells were dyed using 3-(4,5-dimethyl-2-thiazolyl)-2,5-diphenyl-2H-tetrazolium bromide (MTT), which is only converted to its purple formazan derivative by living cells. The half-maximum inhibitory concentration (IC50 in µM) was calculated via the colorimetric method in a microplate reader using absorption at 595 nm. In addition, when an inhibition with an IC50 < 50 µM was observed, other cell lines were subjected to the test compounds to evaluate their further cytotoxicity: PC-3 (human prostate adenocarcinoma), SK-OV-3 (human ovary adenocarcinoma), MCF-7 (human breast adenocarcinoma), A-431 (human squamous carcinoma), and A549 (human lung carcinoma). A detailed procedure, including the colorimetric method to determine the cell viability, can be found in the SI.
(§3) Protocol: Cytotoxicity Assay
(§4) The assay was co nducted in 9 6-well flat -botto m microtiter plates using the parameters summarised in T able S2 and as described in [S2]. Cell l ines L-929 and KB-3.1 were incubated at 37 °C under 10 % CO2 in Gibco™ DMEM medium (T her mo Fisher Scientific, Waltham, M A, USA) supplemented with 10 % FBS. A microtiter plate was filled wit h 120 μ L o f this suspensio n (50,000/mL) in each well. Seperatel y, a nother microti ter plate wa s filled wit h 100 μL of gro wth medium in each well. Then, 50 μ L of the test compound solutions (1 mg/mL) were given to wells of the first column in two replicates (one compound per row). Cells without additives and MeOH were used as nega tive controls. Starting from the first column, 50 μ L of the solutions were gradually transferred to the next column, the contents thoroughly mixed, and 50 μL transferred to the following column. This created a serial dilution of the test compounds ranging from 333 μ g/mL to 1.9×10-3 μg/ mL. T he re mai ni ng 50 μ L after column twelve were discarded. From this microtiter plate, 60 μ L of the solutions fro m 111 μ g/mL to 1.9×10-3 μg/mL we r e give n to t he firs t p late co ntai ni ng 1 2 0 μ L of the cell suspensions (i.e. the highest co ncentration 333 μ g/ mL wa s no t used). T his resul ted in fi nal compo und concentratio ns rangi ng fro m 37 μ g/mL to 0.6×10-3 μg/ mL. After 5 days o f incubatio n under the aforementioned incubatio n conditions, the half maximu m inhibitory co ncentrations (IC50) were deter mined using a colorimetric tetrazolium d ye MT T assa y [S3]. For this, 20 μ L of a 5 mg/mL solution of 3-(4,5-dimethyl-2 -thiazolyl) -2,5-diphenyl-2H-tetrazolium br omide (MTT) were added to each well and incubated for two hours at 37 °C. T hen, the microtiter plate was ce ntrifuged (3,000 rpm, 5 min) and the supernatant removed by holding the plate upside-down and gentle shaking. Afterwards, the wells were washed using 100 μ L of phosphate buffered saline (PBS). T he plate was a gain ce ntrifuged a nd the supernata nt re mo ved as described before.
(§5) T hen, 1 0 0 μ L of an isopropanol:HCl solution (1L isopropanol+4 mL HCl 37 % w/v) were added to the wells. After incubating for 10 min at ambient temperature, the absorption of the wells at 595 nm was measured with an Infinite® 200 Pro microplate reader (TECAN, Männedorf, Schweiz). The absorption values of the cells without additives were averaged and set to 100 % cell viability. Then, the means of absorption of the two compound replicates were set in relation to the blank media. T hese percentage values were plotted against the concentratio n range (37 μ g/mL to 0.6×10−3 μg/ mL). T he IC50 value was r ead fro m the plot (in μ g/ mL) a nd the uni ts conversed […]
to μM. […]

The subject of assay [2] is squamous cell carcinoma A-431. The class given is cell-based, human. The conditions noted are these: A-431, 5-day MTT assay, read-out: IC50. Here is the method: as §1, §2, §3, §4, §5
to μM. […]

For assay [3], the system named is human lung carcinoma A-549. The class given is cell-based. As to conditions: A549, 120 h, A-549, 5-day MTT assay, read-out: IC50. Here is the method:
as §1, §2, §3, §4, §5
to μM. […]

The subject of another assay is mouse fibroblast L-929. In kind it is cell-based. As to conditions: L-929, 5-day MTT assay. The method, then:
as §1, §2, §3, §4, §5
to μM. […]

For assay [4], the system named is human prostate cancer PC-3. In kind it is cell-based. As to conditions: 120 h, PC-3, 5-day MTT assay, read-out: IC50. Here is the method: as §1, §2, §3, §4, §5
to μM. […]

Assay [5] relates to human breast adenocarcinoma MCF-7. The class given is cell-based. The conditions noted are these: MCF-7, 5-day MTT assay, read-out: IC50. Here is the method: as §1, §2, §3, §4, §5
to μM. […]

`CCC(C(=O)O)C1C(C)=CC2CC(C)CCC2C1(C)C(O)=C1C(=O)C(C)N(C)C1=O` (stereo not shown) [compound 2, Colposetin B]: the IC50 is 6.2 to 8.1 µM in assay [1] (Homo sapiens, SK-OV-3, 120 h); 8.1 µM in assay [1]; 6.2 µM in assay [2]; 6.2 to 8.1 µM in assay [2] (Homo sapiens, A-431, 120 h); 16.5 µM in assay [3]; 57.5 µM in the assay on mouse fibroblast L-929 (Mus musculus, L929, 120 h, read-out: IC50). Further, the IC50 in assay [4] was 17.9 µM; in assay [5] (Homo sapiens, MCF7, 120 h), 6.2 to 8.1 µM; in assay [5], 7.9 µM.
Take `CC(C=CCC(C)CCC=C(C)C(=O)C1=C(O)C(C)N(C)C1=O)=CC(C)C(O)C(=O)O` (stereo not shown) [compound 4, Colpomenoic acid A]: the IC50 entry in the assay on mouse fibroblast L-929 is reported as “not active”.
Turning to `CC1=CC2CC(C)CCC2C2(C)C(=O)OC(C(=O)O)C(C)C12` (stereo not shown) [compound 3, Colposetin C], the IC50 entry in the assay with mouse fibroblast L-929 is reported as “not active”.
Turning to `CC(C=CCC(C)C=CC=C(C)C(=O)C1=C(O)C(C)N(C)C1=O)=CC(C)C(O)C(=O)O` (stereo not shown) [compound 5, Colpomenoic acid B], the IC50 entry with mouse fibroblast L-929 is listed as “not active”.
`CC(=O)OC(C(=O)O)C(C)C1C(C)=CC2CC(C)CCC2C1(C)C(O)=C1C(=O)C(C)N(C)C1=O` (stereo not shown) [compound 1, Colposetin A]: in the assay on mouse fibroblast L-929, the IC50 result is “not active”.
